This test deals with T1, human PAD4 (Homo sapiens, UniProt Q9UM07).
T1 construct: human PAD4 (NM_012387), A2-P663, was PCR amplified; His-SUMO (N, cleaved yes); made in house; host or cells: E. coli BL21(DE3)
Description: In vitro PAD4 BAEE biochemical assay. The settings on record: BAEE substrate 3 mM, 5 nM PAD4, 2 mM calcium chloride; geometric mean of multiple experiments. An outline of the steps:
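Ammonia produced by BAEE deimination (3 mM substrate, 2 h, 25 °C) was read as fluorescent isoindole after o-phthalaldehyde/DTT derivatization, ex 405 nm/em 535 nm. Human PAD4 at 5 nM final, 2 mM calcium, pH 7.6 MOPS; compound preincubated 30 min. IC50s, normalized to BB-Cl-Amidine and DMSO controls, were geometric-mean averaged.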

T1 sequence (Q9UM07 2-663): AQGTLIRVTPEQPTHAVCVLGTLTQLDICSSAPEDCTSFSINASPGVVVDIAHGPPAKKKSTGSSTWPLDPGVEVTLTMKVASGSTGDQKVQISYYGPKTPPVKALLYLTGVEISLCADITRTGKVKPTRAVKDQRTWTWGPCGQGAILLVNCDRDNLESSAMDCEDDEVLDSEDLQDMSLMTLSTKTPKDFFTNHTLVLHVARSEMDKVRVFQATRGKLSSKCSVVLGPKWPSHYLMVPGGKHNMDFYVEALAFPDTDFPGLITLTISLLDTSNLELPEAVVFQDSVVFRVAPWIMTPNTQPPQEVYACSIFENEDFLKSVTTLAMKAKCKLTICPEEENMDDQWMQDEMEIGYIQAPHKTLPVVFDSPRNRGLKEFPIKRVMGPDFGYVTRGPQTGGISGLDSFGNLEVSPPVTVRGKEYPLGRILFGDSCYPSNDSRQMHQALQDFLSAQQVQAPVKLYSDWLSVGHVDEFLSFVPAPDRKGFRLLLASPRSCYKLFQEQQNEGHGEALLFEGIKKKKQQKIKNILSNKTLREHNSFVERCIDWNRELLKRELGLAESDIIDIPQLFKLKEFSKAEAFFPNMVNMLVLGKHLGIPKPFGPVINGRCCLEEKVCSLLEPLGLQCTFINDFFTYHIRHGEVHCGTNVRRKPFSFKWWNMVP

For `COc1cc(C(=O)N2C[C@H](N)[C@@H]3CC[C@H]2C3)cc2nc(-c3cc4ccc5nc4n3CCCCCc3ccccc3C(=O)N[C@@H]5C)n(C)c12` [Example 439, (2˜{R})-17-[5-[(1˜{S},4˜{R},5˜{R})-4-amino-2-azabicyclo[3.2.1]octane-2-carbonyl]-7-methoxy-1-methyl-benzimidazol-2-yl]-2-methyl-3,16,22-triazatetracyclo[14.5.2.0^{5,10}.0^{19,23}]tricosa-1(22),5(10),6,8,17,19(23),20-heptaen-4-one], the IC50 came to 32 nM.
The value for `COc1cc(C(=O)N2CC[C@@H](OC)[C@@H](N)C2)cc2nc(-c3cc4ccc5nc4n3CCCCC[C@@H]3C[C@H]3C(=O)NC5(C)C)n(C)c12` [Example 782, (5˜{R},7˜{R})-14-[5-[(3˜{S},4˜{R})-3-amino-4-methoxy-piperidine-1-carbonyl]-7-methoxy-1-methyl-benzimidazol-2-yl]-2,2-dimethyl-3,13,19-triazatetracyclo[11.5.2.0^{5,7}.0^{16,20}]icosa-1(18),14,16,19-tetraen-4-one] was 63 nM.
The value for `COc1cc(C(=O)N2[C@H]3CC[C@@H]2[C@H](N)C3)cc2nc(-c3cc4ccc5nc4n3CCCCCCC(C)(C)C(=O)N[C@@H]5C)n(C)c12` [Example 20, (11~{R})-17-[5-[(1~{R},2~{R},4~{S})-2-amino-7-azabicyclo[2.2.1]heptane-7-carbonyl]-7-methoxy-1-methyl-benzimidazol-2-yl]-8,8,11-trimethyl-1,10,19-triazatricyclo[10.5.2.0^{15,18}]nonadeca-12(19),13,15(18),16-tetraen-9-one] was 62 nM; that for `COc1cc(C(=O)N2CCC[C@@H](N)C2)cc2nc(-c3cc4ccc5nc4n3CCCCCCCC(=O)NC5)n(C)c12` [Example 232, 17-[5-[(3~{R})-3-aminopiperidine-1-carbonyl]-7-methoxy-1-methyl-benzimidazol-2-yl]-1,10,19-triazatricyclo[10.5.2.0^{15,18}]nonadeca-12(19),13,15(18),16-tetraen-9-one] was 549 nM.
As for `COc1cc(C(=O)N2[C@H]3CC[C@@H]2[C@H](N)C3)cc2nc(-c3cc4ccc5nc4n3C[C@@H]3C[C@@H]3COCCC(=O)N[C@@H]5C)c(C)n12` (single isomer, unassigned) [Example 328, (3˜{R},5˜{S},12˜{R})-18-[7-[(1˜{R},2˜{R},4˜{S})-2-amino-7-azabicyclo[2.2.1]heptane-7-carbonyl]-5-methoxy-3-methyl-imidazo[1,2-a]pyridin-2-yl]-12-methyl-7-oxa-1,11,20-triazatetracyclo[11.5.2.0^{3,5}.0^{16,19}]icosa-13(20),14,16(19),17-tetraen-10-one], the figure is 25 nM; as for `COc1cc(C(=O)N2CCC[C@@H](N)C2)cc2nc(-c3cc4ccc5nc4n3CC[C@H]3C[C@H]3COCCC(=O)N[C@@H]5C)n(C)c12` [Example 306, (4~{R},6~{R},13~{R})-19-[5-[(3~{R})-3-aminopiperidine-1-carbonyl]-7-methoxy-1-methyl-benzimidazol-2-yl]-13-methyl-8-oxa-1,12,21-triazatetracyclo[12.5.2.0^{4,6}.0^{17,20}] henicosa-14(21),15,17(20),18-tetraen-11-one], 85 nM; as for `COc1cc(C(=O)N2[C@H]3CC[C@@H]2[C@H](N)C3)cc2nc(-c3cc4ccc5nc4n3CCCCCCCC(=O)N[C@@H]5C)n(C3CC3)c12` [Example 250, (11~{R})-17-[5-[(1~{R},2~{R},4~{S})-2-amino-7-azabicyclo[2.2.1]heptane-7-carbonyl]-1-cyclopropyl-7-methoxy-benzimidazol-2-yl]-11-methyl-1,10,19-triazatricyclo[10.5.2.0^{15,18}]nonadeca-12(19),13,15(18),16-tetraen-9-one], 44 nM.
